Laboratory results from patent US20230111310A1, “CARBOXYLIC ACID DERIVATIVE-SUBSTITUTED IMINO ARYL COMPOUND, PREPARATION METHOD THEREFOR, HERBICIDAL COMPOSITION AND USE THEREOF” (Qingdao Kingagroot Chemical Compound Co., Ltd., priority 2020, published 2023).

Test system: Echinochloa crusgalli
Assay: Weeding effect in post-emergence stage
Assay type: in vivo
Details: Dose 15 g/ha; level of fresh weight growth control rate
Outline: (§1)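 Weeds were treated post-emergence at 2-3 leaves with compound doses from 7.5 up to 500 g/ha, formulated in acetone–Tween 80 with methyl oleate synergist. Efficacy was assessed as growth control after 3 weeks.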

Structure (SMILES) | Weeding effect in post-emergence stage, Echinochloa crusgalli
C[C@@H](O/N=C/c1cc(-n2c(=O)cc(C(F)(F)F)n(C)c2=O)c(F)cc1Cl)C(=O)ON=C1CCCC1 [258(R)] | 5 (Level 5: growth control rate is above 85%)
C[C@@H](O/N=C/c1cc(-n2c(=O)cc(C(F)(F)F)n(C)c2=O)c(F)cc1Cl)C(=O)OCC1CCCO1 (stereo partly drawn) [264(R)] | 5 (Level 5: growth control rate is above 85%)
C[C@@H](O/N=C/c1cc(-n2c(=O)cc(C(F)(F)F)n(C)c2=O)c(F)cc1Cl)C(=O)OCc1ccccc1 [283(R)] | 5 (Level 5: growth control rate is above 85%)

Test system: Alopecurus japonicus
Assay: Weeding effect in post-emergence stage
Assay type: in vivo
Details: Dose 15 g/ha; level of fresh weight growth control rate
Outline: as §1

Structure (SMILES) | Weeding effect in post-emergence stage, Alopecurus japonicus
C[C@@H](O/N=C/c1cc(-n2c(=O)cc(C(F)(F)F)n(C)c2=O)c(F)cc1Cl)C(=O)ON=C1CCCC1 [258(R)] | 4 (Level 4: growth control rate is greater than or equal to 60% and less than 85%)
C[C@@H](O/N=C/c1cc(-n2c(=O)cc(C(F)(F)F)n(C)c2=O)c(F)cc1Cl)C(=O)OCC1CCCO1 (stereo partly drawn) [264(R)] | 5 (Level 5: growth control rate is above 85%)
C[C@@H](O/N=C/c1cc(-n2c(=O)cc(C(F)(F)F)n(C)c2=O)c(F)cc1Cl)C(=O)OCc1ccccc1 [283(R)] | 5 (Level 5: growth control rate is above 85%)

Test system: Eleusine indica
Assay: Weeding effect in post-emergence stage
Assay type: in vivo
Details: Dose 15 g/ha; level of fresh weight growth control rate
Outline: as §1

Structure (SMILES) | Weeding effect in post-emergence stage, Eleusine indica
C[C@@H](O/N=C/c1cc(-n2c(=O)cc(C(F)(F)F)n(C)c2=O)c(F)cc1Cl)C(=O)ON=C1CCCC1 [258(R)] | 5 (Level 5: growth control rate is above 85%)
C[C@@H](O/N=C/c1cc(-n2c(=O)cc(C(F)(F)F)n(C)c2=O)c(F)cc1Cl)C(=O)OCC1CCCO1 (stereo partly drawn) [264(R)] | 5 (Level 5: growth control rate is above 85%)
C[C@@H](O/N=C/c1cc(-n2c(=O)cc(C(F)(F)F)n(C)c2=O)c(F)cc1Cl)C(=O)OCc1ccccc1 [283(R)] | 5 (Level 5: growth control rate is above 85%)

Test system: Abutilon theophrasti
Assay: Weeding effect in post-emergence stage
Assay type: in vivo
Details: Dose 15 g/ha; level of fresh weight growth control rate
Outline: as §1

Structure (SMILES) | Weeding effect in post-emergence stage, Abutilon theophrasti
C[C@@H](O/N=C/c1cc(-n2c(=O)cc(C(F)(F)F)n(C)c2=O)c(F)cc1Cl)C(=O)ON=C1CCCC1 [258(R)] | 5 (Level 5: growth control rate is above 85%)
C[C@@H](O/N=C/c1cc(-n2c(=O)cc(C(F)(F)F)n(C)c2=O)c(F)cc1Cl)C(=O)OCC1CCCO1 (stereo partly drawn) [264(R)] | 5 (Level 5: growth control rate is above 85%)
C[C@@H](O/N=C/c1cc(-n2c(=O)cc(C(F)(F)F)n(C)c2=O)c(F)cc1Cl)C(=O)OCc1ccccc1 [283(R)] | 5 (Level 5: growth control rate is above 85%)

Test system: Setaria viridis
Assay: Weeding effect in post-emergence stage
Assay type: in vivo
Details: Dose 15 g/ha; level of fresh weight growth control rate
Outline: as §1

Structure (SMILES) | Weeding effect in post-emergence stage, Setaria viridis
C[C@@H](O/N=C/c1cc(-n2c(=O)cc(C(F)(F)F)n(C)c2=O)c(F)cc1Cl)C(=O)ON=C1CCCC1 [258(R)] | 5 (Level 5: growth control rate is above 85%)
C[C@@H](O/N=C/c1cc(-n2c(=O)cc(C(F)(F)F)n(C)c2=O)c(F)cc1Cl)C(=O)OCC1CCCO1 (stereo partly drawn) [264(R)] | 5 (Level 5: growth control rate is above 85%)
C[C@@H](O/N=C/c1cc(-n2c(=O)cc(C(F)(F)F)n(C)c2=O)c(F)cc1Cl)C(=O)OCc1ccccc1 [283(R)] | 5 (Level 5: growth control rate is above 85%)

Test system: Digitaria sanguinalis
Assay: Weeding effect in post-emergence stage
Assay type: in vivo
Details: Dose 15 g/ha; level of fresh weight growth control rate
Outline: as §1

Structure (SMILES) | Weeding effect in post-emergence stage, Digitaria sanguinalis
C[C@@H](O/N=C/c1cc(-n2c(=O)cc(C(F)(F)F)n(C)c2=O)c(F)cc1Cl)C(=O)ON=C1CCCC1 [258(R)] | 5 (Level 5: growth control rate is above 85%)
C[C@@H](O/N=C/c1cc(-n2c(=O)cc(C(F)(F)F)n(C)c2=O)c(F)cc1Cl)C(=O)OCC1CCCO1 (stereo partly drawn) [264(R)] | 5 (Level 5: growth control rate is above 85%)
C[C@@H](O/N=C/c1cc(-n2c(=O)cc(C(F)(F)F)n(C)c2=O)c(F)cc1Cl)C(=O)OCc1ccccc1 [283(R)] | 5 (Level 5: growth control rate is above 85%)

Test system: corn
Assay: Pre-emergence stage, crop selectivity
Assay type: in vivo
Details: 30 g/ha, 4 weeks
Procedure: (§2) The activity level criteria for plant damage (i.e., growth control rate) are as follows:
(§3) The aforementioned seeds of monocotyledonous and dicotyledonous weeds and main crops were put into a plastic pot loaded with soil and covered with 0.5-2 cm soil. The test compounds of the present invention was dissolved with acetone, then added with tween 80, diluted by a certain amount of water to reach a certain concentration, and sprayed immediately after sowing. The obtained seeds were incubated for 4 weeks in the greenhouse after spraying and the test results were observed. It was observed that the herbicide mostly had excellent effect at the application rate of 500, 250, 125, 60, 30, 15, 7.5 g/ha, especially to weeds such as Echinochloa crusgalli. Digitaria sanguinalis and Abutilon theophrasti, etc. And many compounds had good selectivity for corn, cotton, wheat, rice, soybean, and peanut etc. In addition, evaluate the weed control effect with the above activity standard level.

Structure (SMILES) | plant damage level Corn
C[C@@H](O/N=C/c1cc(-n2c(=O)cc(C(F)(F)F)n(C)c2=O)c(F)cc1Cl)C(=O)ON=C1CCCC1 [258(R)] | 0 (Level 0: growth control rate is less than 5%)
C[C@@H](O/N=C/c1cc(-n2c(=O)cc(C(F)(F)F)n(C)c2=O)c(F)cc1Cl)C(=O)OCC1CCCO1 (stereo partly drawn) [264(R)] | 0 (Level 0: growth control rate is less than 5%)
C[C@@H](O/N=C/c1cc(-n2c(=O)cc(C(F)(F)F)n(C)c2=O)c(F)cc1Cl)C(=O)OCc1ccccc1 [283(R)] | 0 (Level 0: growth control rate is less than 5%)

Test system: cotton
Assay: Pre-emergence stage, crop selectivity
Assay type: in vivo
Details: 30 g/ha, 4 weeks
Procedure: as §2, §3

Structure (SMILES) | plant damage level Cotton
C[C@@H](O/N=C/c1cc(-n2c(=O)cc(C(F)(F)F)n(C)c2=O)c(F)cc1Cl)C(=O)ON=C1CCCC1 [258(R)] | 0 (Level 0: growth control rate is less than 5%)
C[C@@H](O/N=C/c1cc(-n2c(=O)cc(C(F)(F)F)n(C)c2=O)c(F)cc1Cl)C(=O)OCC1CCCO1 (stereo partly drawn) [264(R)] | 0 (Level 0: growth control rate is less than 5%)
C[C@@H](O/N=C/c1cc(-n2c(=O)cc(C(F)(F)F)n(C)c2=O)c(F)cc1Cl)C(=O)OCc1ccccc1 [283(R)] | 0 (Level 0: growth control rate is less than 5%)

Test system: Peanut
Assay: Pre-emergence stage, crop selectivity
Assay type: in vivo
Details: 30 g/ha, 4 weeks
Procedure: as §2, §3

Structure (SMILES) | plant damage level Peanut
C[C@@H](O/N=C/c1cc(-n2c(=O)cc(C(F)(F)F)n(C)c2=O)c(F)cc1Cl)C(=O)ON=C1CCCC1 [258(R)] | 0 (Level 0: growth control rate is less than 5%)
C[C@@H](O/N=C/c1cc(-n2c(=O)cc(C(F)(F)F)n(C)c2=O)c(F)cc1Cl)C(=O)OCC1CCCO1 (stereo partly drawn) [264(R)] | 0 (Level 0: growth control rate is less than 5%)
C[C@@H](O/N=C/c1cc(-n2c(=O)cc(C(F)(F)F)n(C)c2=O)c(F)cc1Cl)C(=O)OCc1ccccc1 [283(R)] | 0 (Level 0: growth control rate is less than 5%)

Test system: Soybeans
Assay: Pre-emergence stage, crop selectivity
Assay type: in vivo
Details: 30 g/ha, 4 weeks
Procedure: as §2, §3

Structure (SMILES) | plant damage level Soybeans
C[C@@H](O/N=C/c1cc(-n2c(=O)cc(C(F)(F)F)n(C)c2=O)c(F)cc1Cl)C(=O)ON=C1CCCC1 [258(R)] | 0 (Level 0: growth control rate is less than 5%)
C[C@@H](O/N=C/c1cc(-n2c(=O)cc(C(F)(F)F)n(C)c2=O)c(F)cc1Cl)C(=O)OCC1CCCO1 (stereo partly drawn) [264(R)] | 0 (Level 0: growth control rate is less than 5%)
C[C@@H](O/N=C/c1cc(-n2c(=O)cc(C(F)(F)F)n(C)c2=O)c(F)cc1Cl)C(=O)OCc1ccccc1 [283(R)] | 0 (Level 0: growth control rate is less than 5%)

Test system: Descurainia sophia
Assay: Weeding effect in pre-emergence stage
Assay type: in vivo
Details: 30 g/ha, 4 weeks
Procedure: as §2, §3

Structure (SMILES) | activity level (growth control rate) Descurainia sophia
C[C@@H](O/N=C/c1cc(-n2c(=O)cc(C(F)(F)F)n(C)c2=O)c(F)cc1Cl)C(=O)ON=C1CCCC1 [258(R)] | 5 (Level 5: growth control rate is above 85%)
C[C@@H](O/N=C/c1cc(-n2c(=O)cc(C(F)(F)F)n(C)c2=O)c(F)cc1Cl)C(=O)OCC1CCCO1 (stereo partly drawn) [264(R)] | 5 (Level 5: growth control rate is above 85%)
C[C@@H](O/N=C/c1cc(-n2c(=O)cc(C(F)(F)F)n(C)c2=O)c(F)cc1Cl)C(=O)OCc1ccccc1 [283(R)] | 5 (Level 5: growth control rate is above 85%)

Test system: Capsella bursa-pastoris
Assay: Weeding effect in pre-emergence stage
Assay type: in vivo
Details: 30 g/ha, 4 weeks
Procedure: as §2, §3

Structure (SMILES) | activity level (growth control rate) Capsella bursa-pastoris
C[C@@H](O/N=C/c1cc(-n2c(=O)cc(C(F)(F)F)n(C)c2=O)c(F)cc1Cl)C(=O)ON=C1CCCC1 [258(R)] | 5 (Level 5: growth control rate is above 85%)
C[C@@H](O/N=C/c1cc(-n2c(=O)cc(C(F)(F)F)n(C)c2=O)c(F)cc1Cl)C(=O)OCC1CCCO1 (stereo partly drawn) [264(R)] | 5 (Level 5: growth control rate is above 85%)
C[C@@H](O/N=C/c1cc(-n2c(=O)cc(C(F)(F)F)n(C)c2=O)c(F)cc1Cl)C(=O)OCc1ccccc1 [283(R)] | 5 (Level 5: growth control rate is above 85%)

Test system: Amaranthus retroflexus
Assay: Weeding effect in pre-emergence stage
Assay type: in vivo
Details: 30 g/ha, 4 weeks
Procedure: as §2, §3

Structure (SMILES) | activity level (growth control rate) Amaranthus retroflexus
C[C@@H](O/N=C/c1cc(-n2c(=O)cc(C(F)(F)F)n(C)c2=O)c(F)cc1Cl)C(=O)ON=C1CCCC1 [258(R)] | 5 (Level 5: growth control rate is above 85%)
C[C@@H](O/N=C/c1cc(-n2c(=O)cc(C(F)(F)F)n(C)c2=O)c(F)cc1Cl)C(=O)OCC1CCCO1 (stereo partly drawn) [264(R)] | 5 (Level 5: growth control rate is above 85%)
C[C@@H](O/N=C/c1cc(-n2c(=O)cc(C(F)(F)F)n(C)c2=O)c(F)cc1Cl)C(=O)OCc1ccccc1 [283(R)] | 5 (Level 5: growth control rate is above 85%)

Test system: Abutilon theophrasti
Assay: Weeding effect in pre-emergence stage
Assay type: in vivo
Details: 30 g/ha, 4 weeks
Procedure: as §2, §3

Structure (SMILES) | activity level (growth control rate) Abutilon theophrasti
C[C@@H](O/N=C/c1cc(-n2c(=O)cc(C(F)(F)F)n(C)c2=O)c(F)cc1Cl)C(=O)ON=C1CCCC1 [258(R)] | 5 (Level 5: growth control rate is above 85%)
C[C@@H](O/N=C/c1cc(-n2c(=O)cc(C(F)(F)F)n(C)c2=O)c(F)cc1Cl)C(=O)OCC1CCCO1 (stereo partly drawn) [264(R)] | 5 (Level 5: growth control rate is above 85%)
C[C@@H](O/N=C/c1cc(-n2c(=O)cc(C(F)(F)F)n(C)c2=O)c(F)cc1Cl)C(=O)OCc1ccccc1 [283(R)] | 5 (Level 5: growth control rate is above 85%)

Test system: Setaria viridis
Assay: Weeding effect in pre-emergence stage
Assay type: in vivo
Details: 30 g/ha, 4 weeks
Procedure: as §2, §3

Structure (SMILES) | activity level (growth control rate) Setaria viridis
C[C@@H](O/N=C/c1cc(-n2c(=O)cc(C(F)(F)F)n(C)c2=O)c(F)cc1Cl)C(=O)ON=C1CCCC1 [258(R)] | 5 (Level 5: growth control rate is above 85%)
C[C@@H](O/N=C/c1cc(-n2c(=O)cc(C(F)(F)F)n(C)c2=O)c(F)cc1Cl)C(=O)OCC1CCCO1 (stereo partly drawn) [264(R)] | 5 (Level 5: growth control rate is above 85%)
C[C@@H](O/N=C/c1cc(-n2c(=O)cc(C(F)(F)F)n(C)c2=O)c(F)cc1Cl)C(=O)OCc1ccccc1 [283(R)] | 5 (Level 5: growth control rate is above 85%)

Test system: Veronica didyma Tenore
Assay: Weeding effect in pre-emergence stage
Assay type: in vivo
Details: 30 g/ha, 4 weeks
Procedure: as §2, §3

Structure (SMILES) | activity level (growth control rate) Veronica didyma Tenore
C[C@@H](O/N=C/c1cc(-n2c(=O)cc(C(F)(F)F)n(C)c2=O)c(F)cc1Cl)C(=O)ON=C1CCCC1 [258(R)] | 5 (Level 5: growth control rate is above 85%)
C[C@@H](O/N=C/c1cc(-n2c(=O)cc(C(F)(F)F)n(C)c2=O)c(F)cc1Cl)C(=O)OCC1CCCO1 (stereo partly drawn) [264(R)] | 5 (Level 5: growth control rate is above 85%)
C[C@@H](O/N=C/c1cc(-n2c(=O)cc(C(F)(F)F)n(C)c2=O)c(F)cc1Cl)C(=O)OCc1ccccc1 [283(R)] | 5 (Level 5: growth control rate is above 85%)
